Values joined by “and” are separate entries in the source; they are usually repeats but may differ in a detail not shown here. Identical values can stand only once.
Columns and labels:
[1] = tested on: MCF-7 cell line; assay: Flow cytometric analysis of the cell cycle, MCF-7; format: cell-based, human; details: MCF-7, 72 h, IC50 of compound; for S phase cells: control 17.41 ± 0.81%; for G2/M phase cells: control 17.56 ± 0.87%
Method: (§1) Cells were grown at 70% confluence and treated with either DMSO alone or with different concentrations of the compounds corresponding to their IC50 values. Flow cytometry analysis was carried out after 72 h of treatment as described ([Marchal et al., 2004]). The results were representative of three independent experiments.

[2] = tested on: MCF-7 cell line; assay: Annexin V-FITC/PI apoptosis flow cytometry, MCF-7; format: cell-based, human; details: MCF-7, 72 h, IC50 of compound; control 8.15 ± 0.40%
Source text: (§2) Apoptosis was detected using the apoptosis detection kit for annexin V-FITC (Pharmingen, San Diego, CA, United States) by flow cytometry according to [Boulaiz et al. (2003a)]. […] The results were representative of three independent experiments.

[3] = tested on: MCF-7 cancer cell line; assay: Sulforhodamine-B cytotoxicity assay, MCF-7; format: cell-based; details: Homo sapiens, MCF7, 144 h, 6 days of treatment
Method: (§3) To assess the effect of the different drugs on cell viability we used the sulforhodamine-B colorimetric assay. Cells were resuspended and seeded at a density of 5 × 10^3 cells/well onto 12-well plates kept growing for 24 h. After that, the compounds were added at different concentrations to the cells (0.5, 0.7, 1, 2, 5, and 10 μM) (Figure 1). After 72 h treatment, the medium was discarded and fresh medium and treatment was added. Cells were maintained for 3 days more with the treatment. Finally, they were processed as previously described ([Boulaiz et al., 2003b]) using a Titertek Multiscan apparatus (Flow Laboratories, Irvine, United Kingdom) at 492 nm. We used the cell number for each cell stock before each cell growth experiment to set the linearity of the sulforhodamine-B assay. To calculate the IC50 values we used semilogarithmic dose–response curves to make a linear interpolation. All of the experiments were performed in triplicate wells for each treatment and were repeated at least twice.

[4] = tested on: MCF-7TG cancer cell line; assay: Sulforhodamine-B cytotoxicity assay, MCF-7TG (gef-expressing); format: cell-based; details: Homo sapiens, 144 h; 6 days of treatment, gef gene induced with 1 μM Dex
Source text: (§4) The breast cancer cell line MCF-7 was kindly provided by Dr. N. Olea of the Sánchez Mora Tumoural Biology Institute (University Hospital of Granada). The MCF-7TG cell line, a gef-expressing breast cancer cell line controlled by a mouse mammary tumor virus promoter and inducible by dexamethasone (Dex) was derivates from MCF-7 cells following methodology previously described by us ([Boulaiz et al., 2003b]). A selected MCF-7pMAMneo empty vector positive clone was also used. Non-tumoral breast cell line MCF-10A (ATCC: CRL-10317) was provided by the Cell Bank of the University of Granada (Granada, Spain). MCF-7 cells were cultured in a humidified atmosphere at 37°C with 5% CO2 and Dulbecco’s modified Eagle Medium (DMEM) (Gibco, Grand Island, NY, United States) with 10% heat-inactivated fetal bovine serum (FBS) (Gibco), 2.7% sodium bicarbonate, 2% L-glutamine, 1% Hepes buffer, 500 mg/L ampicillin and 40 mg/L gentamicin. MCF-7TG cells were grown in the same medium described above supplemented by 200 μg/ml geneticin G418 and 1μM Dex to induce gef gene expression. MCF-10A grown in DMEM/F12 medium with 5% horse serum (HS), 0.02 μg/ml epithelial growth factor (EGF), 0.5 μg/ml hydrocortisone, 100 ng/ml cholera toxin and 0.01 μg/ml insulin.
as §3

[5] = tested on: MCF-7TG cell line; assay: Flow cytometric analysis of the cell cycle, MCF-7TG; format: cell-based, human; details: 72 h, IC50 of compound
Method: as §1

[6] = tested on: MCF-7TG cell line; assay: Annexin V-FITC/PI apoptosis flow cytometry, MCF-7TG; format: cell-based, human; details: 72 h, IC50 of compound, control 0.74 ± 0.05%
Source text: as §2

[7] = tested on: epithelial MCF-10A cell line; assay: Sulforhodamine-B cytotoxicity assay, MCF-10A; format: cell-based; details: Homo sapiens, non-tumoral breast cell line
Source text: as §4, §3

[8] = tested on: MCF-7TG cells; assay: In vitro cell proliferation assay over 15 days, MCF-7TG; format: cell-based, human; details: for growth inhibition: MCF-7TG (gef expressed), 15 days of treatment; for type of synergistic effect with the gef gene: combined with gef gene, proliferation over 15 days
Method: (§5) MCF-7, MCF-7TG, and MCF-7pMAMneo cells were seeded at a density of 25 × 10^3/well into six-well plates using the culture conditions above mentioned. After 24 h, fresh medium was added to the cells and treated with IC50 and 2^∗IC50 of drugs cited in Table 1. No treatment was added to the control groups. To ensure the expression of the gef gene, MCF-7TG cells medium was always treated with 1 μM Dex. Cells in culture were always treated with or without drugs every 3 days when medium was changed up to the end of the assay. Four plates were used to run each treatment and time point (0, 3, 6, 9, 12, and 15 days of treatment). After the end of the treatment, we used sulforhodamine-B to stain the cells as previously described.

[9] = tested on: MCF-7 cells; assay: In vitro cell proliferation assay over 15 days, MCF-7; format: cell-based, human; details: MCF-7, 15 days of treatment
Method: as §5

| SMILES | S phase cells [1] [%] | G2/M phase cells [1] [%] | cells in early apoptosis [2] [%] | IC50 [3] [µM] | IC50 [4] [µM] | G0/G1 phase cells [5] [%] | necrotic cells [6] [%] | IC50 [7] [µM] | growth inhibition ([8]; IC50 of compound) [%] | type of synergistic effect with the gef gene [8] | growth inhibition ([9]; 2*IC50 of compound) | growth inhibition ([9]; IC50 of compound) [%] | growth inhibition ([8]; 2*IC50 of compound) |
| --- | --- | --- | --- | --- | --- | --- | --- | --- | --- | --- | --- | --- | --- |
| O=[N+]([O-])c1ccc(S(=O)(=O)N2CC(n3cnc4c(Cl)nc(Cl)nc43)OCc3ccccc32)cc1 (racemic) [Bozepinib, (R,S)-2,6-dichloro-9-[1-(p-nitrobenzenesulfonyl)-1,2,3,5-tetrahydro-4,1-benzoxazepine-3-yl]-9H-purine] | 12.29 ± 0.90 | 22.98 ± 1.14 | 40.41 ± 2.02 | 1.23 ± 0.05 | 0.56 ± 0.01 | 85.98 ± 4.29 | 47.03 ± 1.07 | 6.33 ± 0.03 | 81.42 | enhanced synergetic effect | 89.42% | 76 | – |
| COC(CN(c1ccccc1CO)S(=O)(=O)c1ccc([N+](=O)[O-])cc1)n1cnc2c(Cl)nc(Cl)nc21 (stereo not drawn) [ACG-812c-F1] | – | – | – | 9.43 ± 0.07 | 8.75 ± 0.18 | – | – | 17.48 ± 0.12 | – | – | – | – | – |
| O=[N+]([O-])c1ccccc1S(=O)(=O)N1CC(n2cnc3c(Cl)nc(Cl)nc32)OCc2ccccc21 (stereo not drawn) [FC-26c] | – | – | 37.63 ± 1.88 | 2.6 ± 0.1 | 0.65 ± 0.03 | 81.25 ± 4.05 | 54.38 ± 2.3 | 9.187 ± 0.08 | – | enhanced synergetic effect | – | 61.6 | – |
| Nc1ccccc1S(=O)(=O)N1CC(n2cnc3c(Cl)nc(Cl)nc32)OCc2ccccc21 (stereo not drawn) [FC-29b] | 9.47 ± 0.30 | 26.12 ± 1.20 | 57.62 ± 2.88 | 5.02 ± 0.12 | 1.9 ± 0.02 | 80.07 ± 4.01 | 51.92 ± 2.09 | 4.04 ± 0.09 | 60 | additive synergetic effect | 70.48% and 70% | 61.91 | 70.48% and 70% |
| O=S(=O)(c1ccccc1NO)N1CC(n2cnc3c(Cl)nc(Cl)nc32)OCc2ccccc21 (stereo not drawn) [FC-29d] | – | – | – | 8.98 ± 0.3 | 6.7 ± 0.01 | – | – | 47.12 ± 0.05 | – | – | – | – | – |
| O=[N+]([O-])c1ccccc1S(=O)(=O)N1CC(n2cnc3nc(Cl)nc(Cl)c32)OCc2ccccc21 (stereo not drawn) [FC-30b2] | 0.63 ± 0.01 | 33.22 ± 1.66 | 73.27 ± 3.66 | 7.75 ± 0.06 | 1.8 ± 0.08 | 72.96 ± 3.50 | 65.09 ± 2.47 | 9.9 ± 0.08 | 81.14 | enhanced synergetic effect | 96% | 82 | – |
